{"source": "paper PMC6399351", "about": "“Cationic Intrinsically Disordered Antimicrobial Peptides (CIDAMPs) Represent a New Paradigm of Innate Defense with a Potential for Novel Anti-Infectives” (Scientific Reports, 2019)", "key": {"[1]": {"test_system": "Burkholderia cepacia ATCC 25416", "settings": "CFU assay, 10 mM NaP"}, "[2]": {"test_system": "Streptococcus pneumoniae ATCC 33400", "test": "CFU assay of antimicrobial activity", "type": "cell-based", "settings": "10 mM NaP, pH 7.3, 1% TSB", "method_in_brief": "(§1)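 Early log-phase bacteria grown in BHI were exposed at 10^4–10^5 CFU/ml for 2 h at ambient temperature. Two-fold serial dilutions spanned 300 or 150 µg/mL–19 ng/mL (synthetic peptides) or 100 µg/mL–25 ng/mL (recombinant HRNR fragments), and colonies were counted after 16 h at 37 °C.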"}, "[3]": {"test_system": "Streptococcus pyogenes ATCC 12344", "test": "CFU assay of antimicrobial activity", "type": "cell-based", "settings": "10 mM NaP, pH 7.3, 1% TSB", "method_in_brief": "as §1"}, "[4]": {"test_system": "E. coli ATCC 25922", "test": "CO-ADD MIC, broth microdilution (CLSI)", "type": "cell-based, Escherichia coli", "settings": "Mueller–Hinton broth, 5 × 10^5 CFU/mL, 18 h 37 °C, by CO-ADD", "source_text": "They were defined as the lowest peptide\nFurther details of the screening"}, "[5]": {"test_system": "Klebsiella pneumoniae ATCC 13883", "settings": "CFU assay, 10 mM NaP"}, "[6]": {"test_system": "S. aureus ATCC 6538", "settings": "CFU assay"}, "[7]": {"test_system": "Staphylococcus aureus ATCC 43300", "settings": "MRSA; CLSI, Mueller–Hinton broth, 5 × 10^5 CFU/mL, 18 h 37 °C, by CO-ADD"}, "[8]": {"test_system": "Corynebacterium simulans DSM 44415", "test": "CFU assay of antimicrobial activity", "type": "cell-based", "settings": "10 mM NaP, pH 7.3, 1% TSB", "method": "All purified peptides and recombinant proteins were applied using a colony forming unit (CFU) assay in different media. Bacteria were grown to early log-phase in BHI, washed either with 10 mM Na-P, pH 7.4/1% TSB or pH 5.5/1% TSB, or pH 5.5 without TSB or BHI, and adjusted to a concentration of 10^4–10^5 colony forming units (CFU)/ml. For cell number control, 100 µl aliquots were diluted 1:10, 1:100 and 1:1000 and plated in duplicates on BHI agar plates. […]\nThen bacteria were incubated for 2 h at ambient temperature, if not otherwise stated. 10 µl of 0.01% (v/v) acetic acid, added to 100 µl aliquots of the bacteria in the respective medium, served as negative control. From each test, 1:10 and 1:100 dilutions were generated and plated as duplicates of 100 µl aliquots on BHI agar plates. After 16 h incubation at 37 °C, CFU were counted using a colony counter (Bio Kobe, Japan) and expressed as mean of the duplicate estimation to achieve a complete dose-response curve. All experiments were performed at serial dilutions in a concentration range of 100 µg/mL −25 ng/mL for recombinant HRNR fragments and 300 or 150 µg/mL–19 ng/mL for synthetic peptides."}}, "note": "“And” between values parts separate entries of the source, which are not always exact repeats. Equal values may be shown once. Read-outs that look alike come from different tables or passages of the source. Peptide text beside a SMILES is read from it. * marks the point of attachment. Palmitoyl = CCCCCCCCCCCCCCCC(=O)*"}
{"compound": "CCCCCCCCCCCCCCCC(=O)NCC(=O)N[C@@H](CCCNC(=N)N)C(=O)N[C@@H](CCCNC(=N)N)C(=O)NCC(=O)NCC(=O)N[C@@H](CCCNC(=N)N)C(=O)NCC(=O)NCC(=O)N[C@@H](CCCNC(=N)N)C(=O)NCC(=O)N[C@@H](CCCNC(=N)N)C(=O)NCC(=O)N[C@@H](CCCNC(=N)N)C(=O)O", "note": "[Pal-GR13] (Palmitoyl-GRRGGRGGRGRGR-OH)", "values": [{"measurement": "LD90", "setting": "[1]; pH 5.5, 0.25% glucose", "value": ">300", "unit": "µg/mL"}, {"measurement": "LD90", "setting": "[1]; pH 7.3, 0.25% glucose", "value": 4.7, "unit": "µg/mL"}, {"measurement": "LD90", "setting": "[1]; pH 7.3, 1% TSB", "value": 18.75, "unit": "µg/mL"}, {"measurement": "LD90", "setting": "[2]", "value": 2.35, "unit": "µg/mL"}, {"measurement": "LD90", "setting": "[3]", "value": 0.15, "unit": "µg/mL"}, {"measurement": "Minimal inhibitory concentration (MIC)", "setting": "[4]", "value": 4, "unit": "µg/mL"}, {"measurement": "LD90", "setting": "[5]; pH 5.5, 0.25% glucose", "value": 0.15, "unit": "µg/mL"}, {"measurement": "LD90", "setting": "[5]; pH 7.3, 1% TSB", "value": 1.18, "unit": "µg/mL"}, {"measurement": "LD90", "setting": "[6]; 10 mM NaP, pH 5.5, 0.25% glucose", "value": "0.075 µg/mL and 0.15 µg/mL"}, {"measurement": "LD90", "setting": "[6]; 10 mM NaP, pH 5.5, 1% TSB", "value": 0.3, "unit": "µg/mL"}, {"measurement": "LD90", "setting": "[6]; 10 mM NaP, pH 7.3, 1% TSB", "value": 0.3, "unit": "µg/mL"}, {"measurement": "LD90", "setting": "[6]; value in molar units", "value": 47, "unit": "nM"}, {"measurement": "Minimal inhibitory concentration (MIC)", "setting": "[7]", "value": 0.25, "unit": "µg/mL"}, {"measurement": "LD90", "setting": "[8]", "value": 0.59, "unit": "µg/mL"}]}
